Laboratory results published in US5410018A, “Bombesin-related peptides” (Oregon Regional Primate Research Center, priority 1994, dated 1995).
Non-standard residues stand in square brackets, D forms with d. Residues, ends and D or L forms follow the SMILES beside them. No end group written: not given here. pGlu = O=C1CC[C@@H](C(=O)O)N1

Legend:
NMB receptor = NMB receptor (Rattus norvegicus, UniProt P24053); assay: biochemical
Procedure: Membranes of the NMB receptor used in the binding assay were obtained by homogenizing rat olfactory bulb tissue (Polytron, setting 6, 15 sec) in ice-cold 50 mM Tris-HC1 (Buffer A) and centrifuging twice as 39,000 x g (10 min), with an intermediate resuspension in fresh buffer. The final pellets were resuspended in the 50 mM Tris-HCl, containing 0.1 mg/ml bacitracin, and 0.1% BSA (Buffer B), and held on ice for the receptor binding assay. For the assay, aliquots (0.4 ml) were incubated with 0.05 ml [^125 I] NMB (-2200 Ci/mmol, New England Nuclear) and Buffer B, with and without 0.05 ml of unlabeled competing peptides. The experiment was performed with BIM-26336, […], GRP, and NMB as competing peptides.
After a 30 min incubation (4° C.), the bound [^125 I]NMB was separated from the free by rapid filtration through GF/B filters which had been previously soaked in 0.3% polyethyleneimine. The filters were then washed three times with 5 ml aliquots of ice-cold Buffer A. Specific binding was defined as the total [125I] NMB bound minus that bound in the presence of 1 μM unlabeled NMB.

GRP receptor = GRP receptor (Rattus norvegicus, UniProt P52500); assay: biochemical
Chain of GRP receptor (P52500 whole entry): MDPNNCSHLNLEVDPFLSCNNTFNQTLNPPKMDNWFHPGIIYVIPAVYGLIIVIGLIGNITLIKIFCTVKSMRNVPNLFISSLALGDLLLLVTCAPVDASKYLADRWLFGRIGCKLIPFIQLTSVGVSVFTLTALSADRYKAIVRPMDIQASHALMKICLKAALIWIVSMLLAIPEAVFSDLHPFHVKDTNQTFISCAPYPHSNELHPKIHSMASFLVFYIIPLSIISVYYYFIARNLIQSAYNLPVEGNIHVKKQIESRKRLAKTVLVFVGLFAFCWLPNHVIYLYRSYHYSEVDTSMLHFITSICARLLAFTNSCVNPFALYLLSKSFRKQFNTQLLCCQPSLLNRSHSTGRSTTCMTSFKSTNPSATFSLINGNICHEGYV
Procedure: Membranes of the GRP receptor used in the binding assay were obtained by homogenizing cultured AR42J cells (Polytron, setting 6, 15 sec) in ice-cold 50 mM Tris-HC1 (Buffer A) and centrifuging twice as 39,000 x g (10 min), with an intermediate resuspension in fresh buffer. The final pellets were resuspended in the 50 mM Tris-HCl, containing 0.1 mg/ml bacitracin, and 0.1% BSA (Buffer B), and held on ice for the receptor binding assay. […] The experiment was performed with BIM-26336, […], GRP, and NMB as competing peptides.

human NMB receptor = molecular target: T1, human NMB receptor (Homo sapiens, UniProt P28336); assay: Calcium uptake functional assay in xenopus oocytes expressing the human NMB receptor (aequorin luminometry); format: cell-based; details: xenopus oocytes coinjected with NMB receptor RNA and aequorin
T1 construct: expressed in transfected cells; host or cells: Xenopus oocytes injected with NMB receptor RNA and aequorin
T1 sequence (P28336 whole entry): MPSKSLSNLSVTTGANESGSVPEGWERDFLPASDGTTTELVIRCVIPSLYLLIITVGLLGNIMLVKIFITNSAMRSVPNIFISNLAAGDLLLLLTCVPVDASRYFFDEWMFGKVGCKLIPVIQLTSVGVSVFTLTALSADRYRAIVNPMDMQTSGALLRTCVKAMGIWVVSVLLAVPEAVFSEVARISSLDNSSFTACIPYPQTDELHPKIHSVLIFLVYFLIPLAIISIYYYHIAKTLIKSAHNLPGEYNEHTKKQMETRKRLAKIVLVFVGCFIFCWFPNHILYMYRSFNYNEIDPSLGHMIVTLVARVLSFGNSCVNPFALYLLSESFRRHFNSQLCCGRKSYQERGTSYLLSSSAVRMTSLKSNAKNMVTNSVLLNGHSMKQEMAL
Procedure: (§1) The ability of BIM-26336 and BIM-26337 to activate both the GRP and NMB receptors were analyzed using a calcium uptake functional assay.
Xenopus oocytes, a frog egg naturally deprived of any receptors, were coinjected with both NMB receptor RNA and calcium photoprotein aequorin. The ability of SAP bombesins to induce change in intracellular calcium levels within the cells were measured luminometrically. See Spindel, et al., Recent Progress in Hormone Research 48:365 (1993); Corjay, et al., J. Biol. Chem. 266:18771 (1991); and Giladi et al., BioTechniques 10:744 (1991), all of which are hereby incorporated by reference.
(§2) The ability of bombesin, NMB, SAP bombesin-14, and SAP bombesin-10 to agonize the receptor was tested.

human GRP receptor = molecular target: T2, human GRP receptor (Homo sapiens, UniProt P30550); assay: Calcium uptake functional assay in xenopus oocytes expressing the human GRP receptor (aequorin luminometry); format: cell-based; details: xenopus oocytes coinjected with GRP receptor RNA and aequorin
T2 construct: expressed in transfected cells; host or cells: Xenopus oocytes injected with GRP receptor RNA and aequorin
T2 sequence (P30550 whole entry): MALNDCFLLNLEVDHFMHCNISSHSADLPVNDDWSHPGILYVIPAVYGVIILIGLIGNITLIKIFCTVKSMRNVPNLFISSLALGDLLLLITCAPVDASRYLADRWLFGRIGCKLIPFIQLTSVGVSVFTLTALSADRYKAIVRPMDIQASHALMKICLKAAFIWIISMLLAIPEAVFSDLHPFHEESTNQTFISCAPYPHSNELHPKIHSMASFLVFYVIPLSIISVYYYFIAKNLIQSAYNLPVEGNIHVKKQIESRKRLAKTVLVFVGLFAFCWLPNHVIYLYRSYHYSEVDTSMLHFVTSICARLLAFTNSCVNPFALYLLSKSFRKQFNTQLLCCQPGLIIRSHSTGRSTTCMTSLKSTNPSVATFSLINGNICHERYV
Procedure: as §1
Xenopus oocytes were coinjected with both GRP receptor RNA and calcium photoprotein aequorin. The ability of SAP bombesins to induce change in intracellular calcium levels within the cells can be measured luminometrically.
as §2

[1] = tested on: Swiss 3T3/1R mouse embryo fibroblast cells; assay: Thymidine uptake assay in Swiss 3T3 cells; format: cell-based; details: 24 h
Procedure: Swiss 3T3/1R mouse embryo fibroblast cells were plated in 24 well tissue culture plates at a density of 2×10^4 cells in 1 ml of Dublbecco's modified eagles medium (DMEM) supplemented with 40 mM glutamine (Gln) in 10% fetal bovine serum. Cells were incubated 3 or 4 days at […] in a humidified atmosphere at 95% air/5% CO2 before replacing the growth medium with DMEM/Gln and 250 μg/ml gentamicin. On the following day, 1 μCi thymidine was added to all wells, and activity was addressed by addition of test peptides alone or in the presence on 3 nM bombesin, respectively. After 24 h, the cells were rinsed with icecold isotonic saline and treated with ice-cold 5% trichloroacetic acid for 30 min. Cells were then rinsed with 95% ethanol and incubated with 0.1 N NaOH overnight at room temperature. One ml aliquots of neutralized samples were counted in a Packard Tri-Carb liquid scintillation analyzer. Test sample activity was measured in 2 independent experiments performed in quadruplicate.
This experiment was performed using 5 test samples: (1) bombesin (3 nM); (2) BIM-26336; (3) BIM-26337; (4) bombesin (3 nM) and BIM-26336; and (5) bombesin (3 nM)+BIM-26337. The results of these experiments are depicted on FIG. 6, wherein the x-axis depicts concentration of the respective SAP bombesin and the y-axis depicts disintegration per minute.

Chain of NMB receptor (P24053 whole entry): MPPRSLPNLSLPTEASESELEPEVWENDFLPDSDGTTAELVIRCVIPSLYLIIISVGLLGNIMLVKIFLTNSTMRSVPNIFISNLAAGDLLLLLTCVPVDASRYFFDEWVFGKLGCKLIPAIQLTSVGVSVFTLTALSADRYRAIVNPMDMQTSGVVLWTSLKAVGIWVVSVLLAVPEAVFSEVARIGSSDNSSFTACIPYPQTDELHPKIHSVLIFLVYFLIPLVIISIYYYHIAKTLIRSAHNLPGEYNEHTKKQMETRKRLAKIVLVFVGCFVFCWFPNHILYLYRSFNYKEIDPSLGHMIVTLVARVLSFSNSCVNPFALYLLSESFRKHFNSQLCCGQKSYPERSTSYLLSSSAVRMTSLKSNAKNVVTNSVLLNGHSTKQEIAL

| Molecule | Ki (NMB receptor) [nM] | Ki (GRP receptor) [nM] | binding selectivity between GRP and NMB receptors (GRP receptor; comparison of Ki at NMB and GRP receptors) | potency at the NMB receptor (intracellular calcium, relative to NMB) (human NMB receptor) | potency at the GRP receptor (intracellular calcium) (human GRP receptor) | thymidine uptake, peptide with bombesin ([1]; in the presence of 3 nM bombesin) | thymidine uptake, peptide alone ([1]; test peptide alone) |
| --- | --- | --- | --- | --- | --- | --- | --- |
| GNQWARGHFM-NH2 [BIM-26336, Gly-Asn-Gln-Trp-Ala-Arg-Gly-His-Phe-Met-NH2] | 15.1 | 6.6 | – | – | – | – | – |
| CSCC[C@H](NC(=O)[C@H](Cc1ccccc1)NC(=O)[C@H](Cc1c[nH]cn1)NC(=O)CNC(=O)[C@H](CCCNC(=N)N)NC(=O)[C@H](C)NC(=O)[C@H](Cc1c[nH]c2ccccc12)NC(=O)[C@H](CCC(N)=O)NC(=O)[C@H](CC(N)=O)NC(=O)CNC(=O)[C@H](CC(C)C)NC(=O)[C@H](CO)NC(=O)[C@H](CCC(N)=O)NC(=O)[C@@H]1CCC(=O)N1)C(N)=O [BIM-26337, H-pGlu-Gln-Ser-Leu-Gly-Asn-Gln-Trp-Ala-Arg-Gly-His-Phe-Met-NH2] ([pGlu]QSLGNQWARGHFM-NH2) | 610 | 6.4 | more selective binding of GRP than NMB receptors | approximately two log units less than that of NMB | significantly greater potency than SAP bombesin-10 | substantially enhanced | induce thymidine uptake |
